# Experiments:
# [1] = system: P. falciparum 3D7 strains (CQ sensitive); assay: In vitro drug sensitivity, tritiated hypoxanthine incorporation assay; format: cell-based, Plasmodium falciparum; conditions: Plasmodium falciparum; P. falciparum 3D7, CQ sensitive; [3H]hypoxanthine uptake, 48 hours; read-out: IC50
# Procedure: Further dilutions were prepared on the day of biological assays. All the drug solutions were stored at 4°C for later use.
# P. berghei ANKA = assay: In vivo efficacy, 4-day oral treatment of infected mice; set-up: species or system Plasmodium berghei in female Swiss albino mice; conditions: for Number of mice which survived up to 11 days: 5 mice per group
# Procedure: Female Swiss albino mice were collected and kept in the animal house of the Center for Biotechnology and Research Development at the Kenya Medical Research Institute (KEMRI), where the animal experiments were carried out. The animals were six weeks old, weighing 20 to 22 g, and they were kept in mice cages and were allowed to access mice pencils (Ungafeed Company Ltd) and water before experimental testing. Plasmodium berghei ANKA strains, sensitive to quinolone and artemisinin-based drugs, were obtained from the Unit of Malaria, Center for Biotechnology and Research and Development, Kenya Medical Research Institute. Parasites were maintained and cryopreserved in a freezer (−80°C). The parasite was subsequently maintained in the laboratory by serial blood passage from mouse to mouse on a weekly basis.
# This consisted of in vivo evaluation of hybrid drug against P. berghei ANKA, a rodent parasite which is commonly used in antimalarial studies. Female Swiss albino donor mouse was injected intraperitoneally with 0.2 ml of inoculums of 1 × 10^7 parasitized erythrocytes, and P. berghei ANKA strain was obtained from the donor mouse. Parasitaemia was assessed after 5 days under microscope using the Giemsa staining technique. The donor mouse was sedated using carbon dioxide to collect blood via cardiac puncture in a heparinized tube using a syringe and a needle. Carcasses were pooled in a biohazard container and stored at room temperature while waiting to be incinerated. Afterward, the experimental mice were infected with inoculums of 1 × 10^7 parasitized erythrocytes using an intraperitoneal method. The mice were grouped into five groups consisting of 5 mice per group. […] Blood for making thin blood smear was collected from the tip of the mouse tail. The efficacy of the drug was measured by comparison of blood parasitaemia after the four days of therapy (i.e., on day 5 postinfection). The ones still alive at the end of the experiments were killed by using carbon dioxide gas followed by incineration.
# The determination of the dose to be administered was calculated individually according to each mouse weight. In this regard, these formulas were applied: HED (mg/kg) = Animal Dose (mg/kg) ∗ [Animal km/Human km], where HED stands for human equivalent dose and km which is a conversion factor. With km (a constant) = Weight/Body surface area. For mice of 0.02 kg, with a body surface area of 0.007, km = 0.02/0.007 = 3 [15].(3) Dosage mg/kg =Drug concentration mg/ml∗Volume ml/Body weightkg.
# From formula (2),(4) Volume ml of drug to be given to each mouse=Body weight kg∗Dosage mg/kg/Drug concentration mg/ml .
# The parasitaemia was checked for every 24 hours from the time of infection for 4 days. Thin blood smears were prepared from each mouse tail venous blood. The smears were prepared by the Giemsa staining technique, and the parasitaemia of individual mouse had been checked using a light microscope. The following formula was used to calculate the percentage parasitaemia:(5) The Percentage of parasitaemia=Number of parasitized RBCs/field/Total number of RBCs/field ∗100.
# After 4 days, the percentage (%) chemosuppression of each drug was determined using the following formula [17]:(6) Percentage chemosuppression= 100−A−B/A×100, where A is the mean parasitaemia in the negative control group and B is the parasitaemia in the test group. The dose that cured 50% of infected animals had been determined as effective dose (ED50) using a nonlinear regression logistic dose-response model.
# MTT cytotoxicity assay = format: cell-based, African green monkey (Cercopithecus aethiops); conditions: African green monkey (Cercopithecus aethiops), Vero E-6 cells; vero cells, MTT, 48 hours, triplicate; read-out: Mean CC50
# Procedure: (§1) To conduct in vitro toxicity, stock solutions of the test compound and reference drugs were prepared with sterile water. […] The test samples were prepared as a 1 mg·ml^−1 stock solution. Further dilutions were prepared on the day of biological assays. All the drug solutions were stored at 4°C for later use. Vero cells (Vero E-6) were obtained from the Center for Traditional Medicine Drugs and Research (CTMDR), KEMRI. Vero cells are kidney cells extracted from an African green monkey (Cercopithecus aethiops). […] Cells were maintained in Minimum Essential Eagle's Medium (MEM) containing 10% fetal bovine serum (FBS), PenStrep, and glutamine. Vero cells were cultured using T-75 culture flasks. The flasks were kept at 37°C in 5% CO2, and the cells were passaged every 2 to 3 days to keep the cells alive. Trypsinization was carried out to detached cells which overlap each other and counted using a hemocytometer (Neubauer).
# (§2) Using a 96-microwell plate, a cell density of 20,000 vero cells were seeded and incubated for 24 hours at 37°C under 5% CO2 to allow cells to attach to the surface/base of the plate. […] The plates were incubated for 48 hours at 37°C under 5% CO2 to allow the reaction to occur. After 48 hours, 0.5 mg/ml of 3-(4, 5-dimethylthiazol-2-yl)-2,5-diphenyltetra-zolium bromide (MTT) was added for calorimetric measurement of the ability of a drug to kill the vero cell lines. The plates were incubated at 37°C for 3 hours. 100 μL of 100% DMSO was added to each well and mixed to ensure cell lysis and dissolving of the formazan crystals. Doxorubicin was used as a control drug.
# (§3) The amount of formazan measured was directly proportional to the number of viable cells.
# vero cells (Vero E-6) = assay: MTT cytotoxicity assay; format: cell-based, African green monkey (Cercopithecus aethiops); conditions: vero cells
# Procedure: as §1, §2, §3
# [2] = Acute oral toxicity in mice; format: in vivo; conditions: for Number of dead mice: 3 mice per group, head says after 28 days, text 14 days, listed as sarcosine-aniline hybrid drug; for Mean average of weight after 14 days: initial weights 20 to 22 g
# Procedure: In this step, acute toxicity was performed. Three dosages, such as 2000 mg·kg^−1, and 300 mg·kg^−1, and 50 mg/kg were administered orally to mice in three groups, and the fourth group which served as a control received water as a placebo. Each group consisted of 3 mice, and the weight and number of dead mice were monitored and recorded after each 4 days over an interval of 14 days. Clinical or physical signs were also subjected to be recorded during the study period. At the end of the experiment, the mice were killed by using concentrated carbon dioxide gas followed by incineration. The number of dead mice was to be recorded, and a semilog plot of log concentration against percentage (%) response was made.
# Solubility observations = format: physicochemical
# [3] = Acute oral toxicity in mice; conditions: mouse, in vivo, 28 days
structure (smiles),measurement,setting,value
"CNCC(=O)Nc1ccc(Oc2ccc(Cl)cc2)c(Cl)c1 [Sarcosine-aniline hybrid, 3-Chloro-4(4-chlorophenoxy) Methyglycylanilde]",IC50,[1],0.0448 ± 0.0047 µg/mL
same,ED50,"P. berghei ANKA; Plasmodium berghei, 96 h, P. berghei ANKA sensitive strain in mice, four days of oral treatment, read-out: ED50",6.49 mg/kg
same,"Average parasitaemia, Day 7","P. berghei ANKA; after stopping the treatment with 10 mg/kg, day 7",9.74%
same,"Average parasitaemia, Day 9","P. berghei ANKA; after stopping the treatment with 10 mg/kg, day 9",12.98%
same,"Average parasitaemia, Day 11","P. berghei ANKA; after stopping the treatment with 10 mg/kg, day 11",15.61%
same,Number of mice which survived up to 11 days,P. berghei ANKA; dosage 0.625 mg/kg oral,1
same,Number of mice which survived up to 11 days,P. berghei ANKA; dosage 1.25 mg/kg oral,1
same,Number of mice which survived up to 11 days,P. berghei ANKA; dosage 2.5 mg/kg oral,1
same,Number of mice which survived up to 11 days,P. berghei ANKA; dosage 5 mg/kg oral,2
same,Number of mice which survived up to 11 days,P. berghei ANKA; dosage 10 mg/kg oral,3
same,CC50 at 48 h,MTT cytotoxicity assay,50.2 µg/mL
same,Mean difference of CC50 versus artesunate,"vero cells (Vero E-6); sarcosine-aniline hybrid VS artesunate, in µg/mL",30.48
same,Mean difference of CC50 versus chloroquine,vero cells (Vero E-6); sarcosine-aniline hybrid VS chloroquine,-7.78
same,Mean difference of CC50 versus doxorubicin,"vero cells (Vero E-6); sarcosine-aniline hybrid VS doxorubicin, in µg/mL",48.21
same,Number of dead mice,[2]; 50 mg/kg oral,No mouse died
same,Mean average of weight after 14 days,[2]; 50 mg/kg oral,22.24 g
same,Number of dead mice,[2]; 300 mg/kg oral,No mouse died
same,Mean average of weight after 14 days,[2]; 300 mg/kg oral,21.58 g
same,Number of dead mice,[2]; 2000 mg/kg oral,No mouse died
same,Mean average of weight after 14 days,[2]; 2000 mg/kg oral,21.34 g
same,Therapeutic index (LD50/ED50),"[2]; LD50 >5000 mg/kg, ED50 6.49 mg/kg",greater than 770.41
same,LD50 at 14 days,"[2]; mouse, in vivo, oral, mice, estimated from no deaths at 2000 mg/kg",> 5000 mg/kg
same,OECD/OCDE guideline toxicity category,"[2]; oral acute toxicity, mice",category 5
same,Therapeutic index relative to that of artesunate,[2]; versus artesunate therapeutic index of 4 from Xie et al. [31],192.6 fold
same,Solubility in dimethyl sulfoxide (DMSO),Solubility observations; DMSO,soluble
same,Solubility in Tween 80,Solubility observations; Tween 80,slightly soluble
same,Solubility in water,Solubility observations; water,very low
same,Number of dead mice,[3],0

# Reference: paper PMC7171691 (Journal of Tropical Medicine, 2020)
